Assay results: patent US6558900B2, “Regulation of apoptosis and in vitro model for studies thereof” (Emory University, priority 1996, dated 2003)
Entries after “also recorded” stand apart in the source; their conditions may differ.

These molecules were tested on CPP32 (assay: Assay for dATP-dependent activation of CPP32 protease (cleavage of in vitro translated 35S-labeled CPP32 in HeLa S-100)). Conditions: 1 mM nucleotide, 30° C., 1 hr.
Type: biochemical, hamster
Description: The samples were subjected to SDS-PAGE and transferred to a nitrocellulose filter. The filter was exposed to film for 16 hours at room temperature. In FIG. 2B, a 50 μl aliquot of HeLa S-100 (250 μg) was incubated with each aliquot of 6 μl hamster liver nuclei at 37° C. for 2 hr in the presence of 1 mM indicated nucleotide. The DNA was isolated, analyzed by 2% agarose gel electrophoresis and visualized by ethidium bromide staining.
To test the nucleotide specificity for activation of CPP32 and DNA fragmentation, HeLa cell S-100 was incubated with in vitro translated, ^35S-labeled CPP32 in the presence of 1 mM of various nucleotides (FIG. 2A).
A PCR fragment encoding amino acids 29-277 of hamster CPP32 [Wang et al. (1996) supra] was cloned into NdeI and BamHI sites of pET 15b vector (Novagen, Madison, Wis.). The resulting fusion protein of six histidines with hamster CPP32 (amino acids 29-277) was translated in a TNT T7 transcription/translation kit (Promega, Madison, Wis.) in the presence of ^35S-methionine according to the manufacturer's instructions. The translated protein was passed through a 1 ml nickel affirmity column (Qiagen, Chatsworth, Calif.) equilibrated with buffer A. After washing the column with 10 ml of buffer A, the translated CPP32 was eluted with buffer A containing 250 mM imidazole. Human SREBP-2 was translated in a TNT SP6 transcription/translation kit as described [Wang et al. (1995) [Hua et al. (1993) Proc. Natl. Acad. Sci. USA 90, 11603-11607]. Full length human PARP cDNA [Chemey et al. (1987) Proc. Natl. Acad. Sci. USA 84, 8370-8374] was cloned into SmaI and EcoRI sites of pBK-CMV vector (Stratagene, La Jolla, Calif.) and translated in a TNT T7 transcription/translation kit [Promega, Madison, Wis.]. The translated SREBP-2 and PARP (200 μl each) were purified by passing each translation mixture through a 10-ml Sephadex G-25 gel-filtration column equilibrated with buffer A. The translated proteins contained within the exclusion volume of the column were collected.
CPP32 was translated and purified as described above. Aliquot of 3 μl of the in vitro translated CPP32 was incubated with the indicated protein fraction, nucleotides, and 1 mM additional MgCl2 at 30° C. for 1 hour in a final volume of 20 μl of buffer A. At the end of the incubation, 7 μl of 4×SDS sample buffer was added to each reaction. After boiling for 3 min, each sample was subjected to a 15% SDS-polyacrylamide gel electrophoresis (SDS-PAGE). The gel was transferred to a nitrocellulose filter which was subsequently exposed to a Kodak X-OMAT AR X-ray film (Eastman Kodak, Rochester, N.Y.) for 16 hr at room temperature.

Row | Molecule | cleavage of 35S-labeled CPP32 (nucleotide specificity)
1 | Nc1ncnc2c1ncn2[C@H]1C[C@H](O)[C@@H](CO)O1 [deoxyadenosine] | did not replace dATP
2 | O=c1ccn([C@@H]2O[C@H](COP(=O)(O)OP(=O)(O)OP(=O)(O)O)[C@@H](O)[C@H]2O)c(=O)[nH]1 [UTP] | did not replace dATP
3 | Nc1ncnc2c1ncn2[C@H]1C[C@H](O)[C@@H](COP(=O)(O)O)O1 [dAMP] | did not replace dATP
4 | Nc1ncnc2c1ncn2[C@H]1C[C@H](O)[C@@H](COP(=O)(O)OP(=O)(O)O)O1 [dADP] | Cleavage occurred; also recorded: can substitute for dATP
5 | Nc1nc2c(ncn2[C@@H]2O[C@H](COP(=O)(O)OP(=O)(O)OP(=O)(O)O)[C@@H](O)[C@H]2O)c(=O)[nH]1 [GTP] | did not replace dATP
6 | Nc1nc2c(ncn2[C@H]2C[C@H](O)[C@@H](COP(=O)(O)OP(=O)(O)OP(=O)(O)O)O2)c(=O)[nH]1 [dGTP] | did not replace dATP
7 | Nc1ccn([C@H]2C[C@H](O)[C@@H](COP(=O)(O)OP(=O)(O)OP(=O)(O)O)O2)c(=O)n1 [dCTP] | did not replace dATP
8 | Nc1ncnc2c1ncn2[C@@H]1O[C@H](COP(=O)(O)O)[C@@H](O)[C@H]1O [AMP] | did not replace dATP
9 | Nc1ncnc2c1ncn2[C@@H]1O[C@H](CO)[C@@H](O)[C@H]1O [adenosine] | did not replace dATP
10 | Nc1ccn([C@@H]2O[C@H](COP(=O)(O)OP(=O)(O)OP(=O)(O)O)[C@@H](O)[C@H]2O)c(=O)n1 [CTP] | did not replace dATP
11 | Cc1cn([C@H]2C[C@H](O)[C@@H](COP(=O)(O)OP(=O)(O)OP(=O)(O)O)O2)c(=O)[nH]c1=O [dTTP] | did not replace dATP
12 | Nc1ncnc2c1ncn2[C@@H]1O[C@H](COP(=O)(O)OP(=O)(O)O)[C@@H](O)[C@H]1O [ADP] | did not replace dATP

Each molecule was assayed on CPP32 (assay: Apaf-2 activity: recombining with phosphocellulose flow through fraction (Apaf-1) and 35S-labeled CPP32). Conditions: one unit = cleavage of 1% of the input substrate in 60 min.
Type: biochemical, human
Description: FIG. 3 illustrates fractionation and reconstitution of dATP-dependent activation of CPP32 by phosphocellulose chromatography. HeLa cell S-100 was subjected to phosphocellulose chromatography and the column flow through and bound material were collected as described in the Examples. Aliquots (10 μl) of HeLa S-100 (50 μg) (lanes 1 and 2), phosphocellulose flow through fraction (PC-FT) (lanes 3 and 4), phosphocellulose bound fraction (PC-B) (lanes 5 and 6), and the mixture of phosphocellulose flow through and bound material (lanes 7 and 8) were incubated with aliquots of 3 μl in vitro translated, ^35S-labeled CPP32 at 30° C. for 1 hr in the absence (lanes 1,3,5,7) or presence (lanes 2,4,6,8) of 1 mM dATP. The samples were subjected to SDS-PAGE, transferred to a nitrocellulose filter, and the filter was exposed to film for 16 hours at room temperature.
The Apaf-2 activity that bound to the phosphocellulose column was purified through the Mono S column as described in Example 7. […] In FIG. 4B, aliquots (30 μl) of the Mono-S fractions were subjected to 15% SDS-PAGE and the proteins were visualized by silver staining.
Aliquots of 0.2 μg of Apaf-2 purified through the Mono S column (lanes 1, 2), cytochrome c from bovine heart (lanes 3, 4), and rat liver (lanes 5, 6) were incubated with aliquots of 10 μl phosphocellulose flowthrough fraction and 3 μl in vitro translated, 35S-labeled CPP32 at 30° C. for 1 hr in a final volume of 20 μl buffer A in the absence (lanes 1,3,5) or presence of (lanes 2, 4, 6) 1 mM dATP. Samples were subjected to SDS-PAGE and transferred to a nitrocellulose filter which was then exposed to a film for 16 hr at room temperature.
To isolate the protein(s) required for the activation of CPP32, HeLa S-100 was loaded onto a phosphocellulose column, and the flow-through and bound fractions were collected. […] When the flowthrough and bound fractions were mixed, CPP32-activating activity was restored (lanes 7-8). […] The factor(s) that flow through the phosphocellulose column are designated apoptotic protease activating factor-1 (Apaf-1) and the factor that bound to the column is designated apoptotic protease activating factor-2 (Apaf-2). It is understood that “Apaf-1” may represent more than one protein or it may represent a combination of protein(s) and other factors.
Apaf-2 activity was assayed by recombining with Apaf-1 after purification by the following steps. First, the Apaf-2 fraction was subjected to 50% ammonium sulfate precipitation. All of the activity remained in the supernatant while most of the protein precipitated (Table I). The supernatant was loaded onto a phenyl-sepharose (hydrophobic interaction) column and the activity was eluted with 1 M ammonium sulfate. The eluate was passed through a gel filtration column; active fractions were subjected to sequential Mono Q (anion exchange) and Mono S (cation exchange) chromatography. The Apaf-2 activity flowed through the Mono Q column, and the flow through was directly loaded onto the Mono S column. Bound Apaf-2 activity was then eluted with a 100-300 mM NaCl linear salt gradient. The fractions from the Mono S column were collected and assayed. […] The active fractions were analyzed by SDS-PAGE (FIG. 4B). A protein of apparent molecular mass of 15 kDa was co-eluted with the activity. No other proteins were detected by silver staining in the active Apaf-2 fractions.
CPP32 was translated and purified as described above. […]

Row | Molecule | Specific Activity [units/mg] | Total Activity [unit]
13 | Mono Q/Mono-S: Apaf-2 purification step 6: Apaf-2 purified through the Mono S column | 263150 | 20000
